Test results from the Kinase Knowledgebase extract (Sharma et al. 2016).
Values joined by “and” are separate entries in the source; they are usually repeats but may differ in a detail not shown here. Identical values can stand only once.

Each compound was assayed against PIK3CA (human) (UniProt P42336) (assay: Assessment of Growth Inhibition of U937 Cells). Conditions: not given.
Chain of PIK3CA (human) (P42336 whole entry, looked up): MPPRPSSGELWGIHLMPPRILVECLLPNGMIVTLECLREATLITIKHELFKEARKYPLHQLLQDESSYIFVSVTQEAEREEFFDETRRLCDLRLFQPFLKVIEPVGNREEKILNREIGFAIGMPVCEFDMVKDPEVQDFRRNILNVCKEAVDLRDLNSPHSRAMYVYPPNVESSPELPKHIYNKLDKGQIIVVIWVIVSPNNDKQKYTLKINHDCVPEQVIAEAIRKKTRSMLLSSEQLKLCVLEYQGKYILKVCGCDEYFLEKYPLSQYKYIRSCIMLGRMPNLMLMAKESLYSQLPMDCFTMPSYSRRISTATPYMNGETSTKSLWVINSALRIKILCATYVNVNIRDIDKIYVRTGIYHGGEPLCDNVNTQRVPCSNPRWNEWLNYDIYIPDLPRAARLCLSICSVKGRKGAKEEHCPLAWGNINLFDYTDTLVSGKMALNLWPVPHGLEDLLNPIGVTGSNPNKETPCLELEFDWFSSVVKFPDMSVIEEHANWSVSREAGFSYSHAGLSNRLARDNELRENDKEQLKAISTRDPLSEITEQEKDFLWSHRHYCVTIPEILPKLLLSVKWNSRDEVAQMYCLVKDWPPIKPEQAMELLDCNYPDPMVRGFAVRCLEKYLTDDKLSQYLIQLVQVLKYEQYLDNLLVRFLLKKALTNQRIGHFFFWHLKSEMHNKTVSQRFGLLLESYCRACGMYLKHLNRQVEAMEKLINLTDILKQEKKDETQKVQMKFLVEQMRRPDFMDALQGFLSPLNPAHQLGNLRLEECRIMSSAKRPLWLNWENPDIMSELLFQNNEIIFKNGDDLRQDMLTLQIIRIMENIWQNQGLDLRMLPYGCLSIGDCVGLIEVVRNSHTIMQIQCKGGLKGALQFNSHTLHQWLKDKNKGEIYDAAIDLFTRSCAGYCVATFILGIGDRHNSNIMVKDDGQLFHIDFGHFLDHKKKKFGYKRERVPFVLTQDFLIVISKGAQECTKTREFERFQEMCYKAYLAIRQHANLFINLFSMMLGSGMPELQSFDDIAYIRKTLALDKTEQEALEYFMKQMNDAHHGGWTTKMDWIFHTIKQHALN
NCCN1C(=O)SC(=CCCc2ccc([N+](=O)[O-])cc2)C1=O was tested, and the IC50 was > 30000 nM. With NCCN1C(=O)c2ccc(Cc3ccccc3)cc2C1=O the IC50 was > 30000 nM. CCCC=C1SC(=O)N(CCN)C1=O was tested, and the IC50 was > 30000 nM.

Each compound was assayed against MAPK14 (UniProt Q16539) (assay: p38 Inhibition). Conditions: not given.
Chain of MAPK14 (Q16539 whole entry, looked up): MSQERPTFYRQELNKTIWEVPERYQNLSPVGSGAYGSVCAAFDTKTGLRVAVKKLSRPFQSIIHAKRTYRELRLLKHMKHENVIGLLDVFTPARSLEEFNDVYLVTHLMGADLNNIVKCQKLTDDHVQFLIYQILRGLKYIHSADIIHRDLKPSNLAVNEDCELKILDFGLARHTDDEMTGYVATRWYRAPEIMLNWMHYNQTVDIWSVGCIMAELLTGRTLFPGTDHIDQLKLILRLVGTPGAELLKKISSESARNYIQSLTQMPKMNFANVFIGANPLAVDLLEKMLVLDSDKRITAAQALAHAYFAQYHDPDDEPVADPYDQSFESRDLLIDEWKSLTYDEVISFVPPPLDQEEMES
In the case of O=C(CNS(=O)(=O)c1ccc(CNC(=O)c2ccc(Cl)cc2)s1)Nc1cccc(S(=O)(=O)C(F)(F)F)c1, the IC50 is reported as > 30000 nM. O=C(CCCNc1ncc(C(F)(F)F)cc1Cl)NNS(=O)(=O)c1ccc(CNC(=O)c2cccc(O)c2)s1 was tested, and the IC50 was > 30000 nM. Cc1cc(-c2c(-c3ccc(F)cc3)ncn2CCCN2CCOCC2)cc(C)n1 was tested, and the IC50 was > 17000 nM. In the case of O=C(CCCNc1ncc(C(F)(F)F)cc1Cl)NNS(=O)(=O)c1ccc(CNC(=O)c2cccc([N+](=O)[O-])c2)s1, the IC50 is reported as > 30000 nM. Work on O=c1c(-c2ccncc2)c(-c2ccc(F)cc2)[nH]n1-c1ccc(Cl)cc1 yielded an IC50 of 35 nM. Cc1cc(-c2c(-c3ccc(F)cc3)ncn2CCCN2CCOCC2)nc(N)n1 was tested, and the IC50 was > 17000 nM.

Same assay, conditions: concentration not given here
Compound Cc1[nH]c(=O)c2c(ccc3nc(Nc4c(Cl)cccc4Cl)[nH]c32)c1C has an inhibition of 0%. O=c1c(-c2ccc(F)cc2)c(-c2ccncc2)[nH]n1-c1ccc(Cl)cc1 was tested, and the inhibition was 43%.

What follows are compounds tested against PIK3CD (Human) (UniProt O00329) (assay: Assessment of PIK3CD Kinase Activity). Conditions: not given.
Chain of PIK3CD (Human) (O00329 whole entry, looked up): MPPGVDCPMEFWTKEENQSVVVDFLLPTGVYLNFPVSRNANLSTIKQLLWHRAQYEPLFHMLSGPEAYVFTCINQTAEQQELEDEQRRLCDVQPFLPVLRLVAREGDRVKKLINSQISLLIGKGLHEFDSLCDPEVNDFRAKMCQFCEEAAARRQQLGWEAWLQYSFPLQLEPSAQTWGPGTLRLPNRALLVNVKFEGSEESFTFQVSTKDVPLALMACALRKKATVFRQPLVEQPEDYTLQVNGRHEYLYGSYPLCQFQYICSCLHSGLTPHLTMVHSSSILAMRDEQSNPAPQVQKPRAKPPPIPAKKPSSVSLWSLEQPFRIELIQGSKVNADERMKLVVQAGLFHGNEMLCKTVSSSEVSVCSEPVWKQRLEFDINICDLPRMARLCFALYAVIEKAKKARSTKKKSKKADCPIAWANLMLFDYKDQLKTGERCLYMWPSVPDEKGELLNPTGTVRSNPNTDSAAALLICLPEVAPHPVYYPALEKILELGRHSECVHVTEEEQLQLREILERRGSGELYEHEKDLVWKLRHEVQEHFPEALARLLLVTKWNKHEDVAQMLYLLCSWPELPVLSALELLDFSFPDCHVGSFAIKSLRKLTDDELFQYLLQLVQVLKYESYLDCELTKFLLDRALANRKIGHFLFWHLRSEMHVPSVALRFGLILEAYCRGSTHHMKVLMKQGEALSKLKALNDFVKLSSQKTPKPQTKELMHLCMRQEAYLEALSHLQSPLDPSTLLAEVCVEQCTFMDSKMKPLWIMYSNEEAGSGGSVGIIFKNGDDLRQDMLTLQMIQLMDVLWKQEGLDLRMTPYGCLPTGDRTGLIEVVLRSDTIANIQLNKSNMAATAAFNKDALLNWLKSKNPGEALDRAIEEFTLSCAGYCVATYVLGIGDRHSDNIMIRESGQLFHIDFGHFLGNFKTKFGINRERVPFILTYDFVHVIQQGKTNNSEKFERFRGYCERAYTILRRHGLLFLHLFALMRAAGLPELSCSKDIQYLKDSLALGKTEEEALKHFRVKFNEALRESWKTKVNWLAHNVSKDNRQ
In the case of Nc1nc2ccc(-c3cncc(NS(=O)(=O)c4cccc5ccccc45)c3)cn2n1, the IC50 is reported as 126 nM. CC(=O)Nc1nc2ccc(-c3cccc(-c4nc(C)no4)c3)cn2n1 was tested, and the IC50 was > 100000 nM. For CC(Nc1ncnc(N)c1C#N)c1nc2ccc(F)cc2c([S+]([O-])CCO)c1-c1ccccc1 (stereo unspecified), the Ki was 1.8 nM and 2.48 nM. CC(Nc1ncnc2[nH]cnc12)c1cc(Cl)c2cncn2c1-c1cccc(F)c1 (stereo unspecified) was tested, and the IC50 was ≤ 50 nM.

These compounds were tested against CDK2 (human) (UniProt P24941) (assay: Cell-Based Assay). Conditions: a 549.
C[C@@H](Nc1nc(N[C@H]2CC[C@H](N)CC2)nc2c1ncn2C1CCCC1)c1ccccc1 showed an IC50 of 6100 nM.

Same assay, conditions: a2780
COc1cccc(CC(=O)Nc2cc(C3CC3)[nH]n2)c1 was tested, and the IC50 was > 20000 nM. O=C(Cc1ccc(-c2ccc(C(=O)O)cc2)cc1)Nc1cc(C2CC2)[nH]n1 was tested, and the IC50 was > 20000 nM.

Same assay, conditions: dms-114
Compound C[C@@H](Nc1nc(N[C@H]2CC[C@H](N)CC2)nc2c1ncn2C1CCCC1)c1ccccc1 has an IC50 of 6600 nM.

Same assay, conditions: du-145
C[C@@H](Nc1nc(N[C@H]2CC[C@H](N)CC2)nc2c1ncn2C1CCCC1)c1ccccc1 showed an IC50 of 5600 nM.

Same assay, conditions: hela
Compound O=C1NCCc2c1[nH]c1ccc(Br)cc21 has an IC50 of 3000 nM.

Same assay, conditions: ht-29
Work on C[C@@H](Nc1nc(N[C@H]2CC[C@H](N)CC2)nc2c1ncn2C1CCCC1)c1ccccc1 yielded an IC50 of 5700 nM.

Same assay, conditions: mcf-7
In the case of COCCNS(=O)(=O)c1ccc(Nc2nccc(-c3c(C)nc4cccnn34)n2)cc1, the IC50 is reported as 230 nM. C[C@@H](Nc1nc(N[C@H]2CC[C@H](N)CC2)nc2c1ncn2C1CCCC1)c1ccccc1 gave an IC50 of 3300 nM. With NS(=O)(=O)c1ccc(Nc2nccc(-c3cnc4ccccn34)n2)cc1 the IC50 was 260 nM. In the case of CN(C)CCCNS(=O)(=O)c1ccc(Nc2nccc(-c3cnc4cccnn34)n2)cc1, the IC50 is reported as 430 nM. In the case of COCCN(C)S(=O)(=O)c1ccc(Nc2nccc(-c3cnc4cccnn34)n2)cc1, the IC50 is reported as > 5000 nM.

Same assay, conditions: mda-mb-231
C[C@@H](Nc1nc(N[C@H]2CC[C@H](N)CC2)nc2c1ncn2C1CCCC1)c1ccccc1 was tested, and the IC50 was 5200 nM.

Same assay, conditions: pc-3
C[C@@H](Nc1nc(N[C@H]2CC[C@H](N)CC2)nc2c1ncn2C1CCCC1)c1ccccc1 showed an IC50 of 3900 nM.

Same assay, conditions: rko
NCCSc1cc(-c2ccc[nH]2)c2c3c(ccc(F)c13)NC2=O was tested, and the IC50 was 100 nM.

What follows are compounds tested against MAPK14 (murine) (assay: Inhibition of MAPK14 Kinase Activity). Conditions: not given.
With O=C1NCc2cc(NS(=O)(=O)c3cc(Cl)ccc3Cl)ccc2N1c1c(Cl)cccc1Cl the IC50 was 100 nM. In the case of COc1ccc(CCN(C)C)cc1-c1n[nH]c2nc(Nc3ccc(F)cc3F)ncc12, the IC50 is reported as 11 nM. In the case of O=c1ccn2cc(Cc3ccc(F)cc3F)ccc2c1-c1c(F)cccc1F, the IC50 is reported as 93 nM. COc1ccc(C(=O)N2CCCC2)cc1-c1c(=O)ccn2nc(Oc3ccc(F)cc3F)ccc12 gave an IC50 of 22 nM. For COc1ccc(CCN2CCN(C)CC2)cc1-c1n[nH]c2nc(Nc3ccc(F)cc3F)ncc12, the IC50 was 14 nM. With O=c1ccn2cc(Sc3ccc(F)cc3F)ccc2c1-c1c(F)cccc1F the IC50 was 320 nM. With CCc1ccc(C(=O)N2CCCC2)cc1-c1c(=O)ccn2nc(Oc3ccc(F)cc3F)ccc12 the IC50 was 59 nM. O=c1ccn2nc(NCc3ccc(F)cc3F)ccc2c1-c1c(F)cccc1F gave an IC50 of 710 nM. In the case of Fc1ccc(Nc2ccc3c(-c4ccccc4Cl)ncnc3n2)c(F)c1, the IC50 is reported as 5800 nM. Cc1cc(OCCCN2CCOCC2)cc(C)c1N1C(=O)NCc2cc(NS(=O)(=O)c3ccc(F)c(Cl)c3)ccc21 showed an IC50 of 14 nM.

These compounds were tested against EGFR (human) (UniProt P00533) (assay: not given). Conditions: not given.
Chain of EGFR (human) (P00533 whole entry, looked up): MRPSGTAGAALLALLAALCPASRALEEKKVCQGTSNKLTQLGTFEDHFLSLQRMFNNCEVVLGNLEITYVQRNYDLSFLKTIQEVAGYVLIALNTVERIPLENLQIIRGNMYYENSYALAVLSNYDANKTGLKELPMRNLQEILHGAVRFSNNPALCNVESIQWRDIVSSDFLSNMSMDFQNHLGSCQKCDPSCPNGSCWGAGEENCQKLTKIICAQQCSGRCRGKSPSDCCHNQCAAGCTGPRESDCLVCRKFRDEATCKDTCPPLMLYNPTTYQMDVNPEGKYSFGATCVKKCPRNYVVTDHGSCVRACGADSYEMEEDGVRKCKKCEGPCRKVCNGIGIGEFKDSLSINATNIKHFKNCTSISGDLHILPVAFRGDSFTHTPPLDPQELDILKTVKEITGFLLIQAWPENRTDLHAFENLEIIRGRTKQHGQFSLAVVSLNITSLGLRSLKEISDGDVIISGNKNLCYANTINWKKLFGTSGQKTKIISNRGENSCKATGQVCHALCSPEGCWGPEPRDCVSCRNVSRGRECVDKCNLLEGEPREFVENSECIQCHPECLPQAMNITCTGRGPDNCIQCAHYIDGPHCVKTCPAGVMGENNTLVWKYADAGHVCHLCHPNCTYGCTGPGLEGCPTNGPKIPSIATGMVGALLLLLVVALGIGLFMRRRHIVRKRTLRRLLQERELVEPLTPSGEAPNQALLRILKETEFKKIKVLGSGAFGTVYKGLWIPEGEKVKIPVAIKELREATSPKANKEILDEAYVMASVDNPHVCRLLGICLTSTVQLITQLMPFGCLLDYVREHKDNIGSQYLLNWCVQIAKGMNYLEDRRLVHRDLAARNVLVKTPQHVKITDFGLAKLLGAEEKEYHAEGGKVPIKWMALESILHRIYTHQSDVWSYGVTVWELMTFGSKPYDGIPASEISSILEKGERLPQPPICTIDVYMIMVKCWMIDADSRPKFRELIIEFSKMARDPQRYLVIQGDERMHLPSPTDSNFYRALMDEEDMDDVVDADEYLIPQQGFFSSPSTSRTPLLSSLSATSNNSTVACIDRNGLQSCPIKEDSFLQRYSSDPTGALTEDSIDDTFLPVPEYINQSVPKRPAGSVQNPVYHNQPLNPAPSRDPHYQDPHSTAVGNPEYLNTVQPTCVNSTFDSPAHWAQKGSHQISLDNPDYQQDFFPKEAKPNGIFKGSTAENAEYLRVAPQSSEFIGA
In the case of COc1cc2ncnc(NS(=O)(=O)c3ccc(Cl)cc3)c2cc1OC, the IC50 is reported as ≤ 1000 nM. For COc1cc2ncnc(NS(=O)(=O)c3ccccc3I)c2cc1OC, the IC50 was ≤ 1000 nM. COc1cc2ncnc(NS(=O)(=O)c3ccccc3C#N)c2cc1OC was tested, and the IC50 was ≤ 1000 nM. For COc1cc2ncnc(NS(=O)(=O)c3cccc(Cl)c3)c2cc1OC, the IC50 was ≤ 1000 nM. With COc1cc2ncnc(NS(=O)(=O)c3ccccc3Cl)c2cc1OC the IC50 was ≤ 1000 nM. With COc1cc2ncnc(NS(=O)(=O)c3ccc(Br)cc3)c2cc1OC the IC50 was ≤ 1000 nM. For COc1ccc(S(=O)(=O)Nc2ncnc3cc(OC)c(OC)cc23)cc1, the IC50 was ≤ 1000 nM. COc1cc2ncnc(NS(=O)(=O)c3ccccc3Br)c2cc1OC was tested, and the IC50 was ≤ 1000 nM. For COc1cc2ncnc(NS(=O)(=O)c3ccc(C)cc3)c2cc1OC, the IC50 was ≤ 1000 nM.

Each compound was assayed against EGFR (UniProt P00533) (assay: not given). Conditions: not given.
Chain of EGFR (P00533 whole entry, looked up): as above
Compound NCCC(=O)N[C@@H](Cc1cc(O)c(O)c(SC[C@H](N)C(=O)O)c1)C(=O)O has an inhibition of 2.5. Compound NCCc1cc(SC[C@H](NC(=O)CC[C@H](N)C(=O)O)C(=O)NCC(=O)O)c(O)c(O)c1SC[C@H](NC(=O)CC[C@H](N)C(=O)O)C(=O)NCC(=O)O has an inhibition of 7.6.
